From patent US9029377B2, “Platelet-activating factor receptor antagonists” (Merck Sharp & Dohme Corp., priority 2009, dated 2015)

Molecular target: PAFR (Homo sapiens, UniProt P25105)
Experiment: PAF Binding Assay (PAFR binding)

Chain of PAFR (P25105 whole entry): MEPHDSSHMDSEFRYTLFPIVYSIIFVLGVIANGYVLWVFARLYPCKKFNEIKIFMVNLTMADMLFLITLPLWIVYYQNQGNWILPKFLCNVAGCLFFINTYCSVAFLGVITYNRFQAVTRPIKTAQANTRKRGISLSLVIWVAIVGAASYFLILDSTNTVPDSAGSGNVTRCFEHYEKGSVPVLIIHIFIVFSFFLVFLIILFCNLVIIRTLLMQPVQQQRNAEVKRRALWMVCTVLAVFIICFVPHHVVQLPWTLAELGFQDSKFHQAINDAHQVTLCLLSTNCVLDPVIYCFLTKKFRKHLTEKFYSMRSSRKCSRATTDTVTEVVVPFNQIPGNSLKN

| IC50 | Compound |
| --- | --- |
| 15 nM | O=S(=O)(N[C@H]1CCC[C@@H](n2cnnc2)C1)c1cc(-c2cccc3ccccc23)cc(C(F)(F)F)c1 [Compound 3Ao, 3-(1-naphthyl)-N-[(1S,3R)-3-(4H-1,2,4-triazol-4-yl)cyclohexyl]-5-(trifluoromethyl)benzenesulfonamide] |
| 9800 nM | CCc1cc(-n2cnnc2C)ccc1S(=O)(=O)N[C@H]1CCC[C@@H](n2cnnc2)C1 [Compound 4b, 2-ethyl-4-(3-methyl-4H-1,2,4-triazol-4-yl)-N-[(1S,3R)-3-(4H-1,2,4-triazol-4-yl)cyclohexyl]benzenesulfonamide] |
| 4.5 nM | COc1ncccc1-c1cc(C(F)(F)F)cc(S(=O)(=O)N[C@H]2CCC[C@@H](n3cnnc3)C2)c1 [Compound 3Ag, 3-(2-methoxypyridin-3-yl)-N-[(1S,3R)-3-(4H-1,2,4-triazol-4-yl)cyclohexyl]-5-(trifluoromethyl)benzenesulfonamide] |
| 815 nM | CCc1cc(-n2cnnn2)ccc1S(=O)(=O)N[C@H]1CCC[C@@H](n2cnnc2)C1 [Compound 5a, 2-ethyl-4-(1H-tetrazol-1-yl)-N-[(1S,3R)-3-(4H-1,2,4-triazol-4-yl)cyclohexyl]benzenesulfonamide] |
| 10 nM | O=S(=O)(N[C@H]1CCC[C@@H](n2cnnc2)C1)c1cc(F)cc(-c2ccccc2)c1 [Compound 3Fa, 5-fluoro-N-[(1S,3R)-3-(4H-1,2,4-triazol-4-yl)cyclohexyl]biphenyl-3-sulfonamide] |
| 12 nM | O=S(=O)(N[C@H]1CCC[C@@H](n2cnnc2)C1)c1cc(-c2cccnc2O)cc(C(F)(F)F)c1 [Compound 3Aj, 3-(2-hydroxypyridin-3-yl)-N-[(1S,3R)-3-(4H-1,2,4-triazol-4-yl)cyclohexyl]-5-(trifluoromethyl)benzenesulfonamide] |
| 1 nM | O=S(=O)(N[C@H]1CCC[C@@H](n2cnnc2)C1)c1cc(F)cc(-c2cccc3cccnc23)c1 [Compound 3Fc, 3-fluoro-5-quinolin-8-yl-N-[(1S,3R)-3-(4H-1,2,4-triazol-4-yl)cyclohexyl]benzenesulfonamide] |

Further lines, the compound ahead of its results:

| Compound | IC50 |
| --- | --- |
| Cc1cn2nc(-c3cc(C(F)(F)F)cc(S(=O)(=O)N[C@H]4CCC[C@@H](n5cnnc5)C4)c3)ccc2n1 [Compound 3Aai, 3-(2-methylimidazo[1,2-b]pyridazin-6-yl)-N-[(1S,3R)-3-(4H-1,2,4-triazol-4-yl)cyclohexyl]-5-(trifluoromethyl)benzenesulfonamide] | 4.1 nM |
| Cc1nncn1[C@@H]1CCC[C@H](NS(=O)(=O)c2ccc(-c3ccc(OC(F)(F)F)cc3)c(F)c2)C1 [Compound 2Fa, 2-fluoro-N-[(1S,3R)-3-(3-methyl-4H-1,2,4-triazol-4-yl)cyclohexyl]-4′-(trifluoromethoxy)biphenyl-4-sulfonamide] | 0.2 nM |
| 4-(5-cyclopropyl-1,2,4-oxadiazol-3-yl)-N-[(1R,5S)-3,3-difluoro-5-(4H-1,2,4-triazol-4-yl)cyclohexyl]-3-ethylbiphenyl-4-sulfonamide [Compound 2Cy] | 7.3 nM |
| O=S(=O)(N[C@H]1CCC[C@@H](n2cnnc2)C1)c1ccc(-c2noc(C3CCC3)n2)cc1C1CC1 [Compound 2Kf, 4-(5-cyclobutyl-1,2,4-oxadiazol-3-yl)-2-cyclopropyl-N-[(1S,3R)-3-(4H-1,2,4-triazol-4-yl)cyclohexyl]benzenesulfonamide] | 2.8 nM |
| Cc1nncn1[C@H]1C[C@@H](NS(=O)(=O)c2cc(-c3ccn[nH]3)cc(C(F)(F)F)c2)CC(F)(F)C1 [Compound 9Ae] | 18 nM |
| CCc1cc(-c2cccnc2)ccc1S(=O)(=O)N[C@H]1CCC[C@@H](n2cnnc2)C1 [Compound 2Ao, 2-ethyl-4-pyridin-3-yl-N-[(1S,3R)-3-(4H-1,2,4-triazol-4-yl)cyclohexyl]benzenesulfonamide] | 159 nM |
| CCc1cc(-c2ccc(OC(F)(F)F)cc2)ccc1S(=O)(=O)N[C@H]1CCC[C@@H](n2cnnc2)C1 [Compound 2b, 3-ethyl-N-[(1S,3R)-3-(4H-1,2,4-triazol-4-yl)cyclohexyl]-4′-(trifluoromethoxy)biphenyl-4-sulfonamide] | 3.6 nM |
| CCc1cc(-c2ccccc2F)ccc1S(=O)(=O)N[C@H]1CCC[C@@H](n2cnnc2)C1 [Compound 2Al, 3-ethyl-2′-fluoro-N-[(1S,3R)-3-(4H-1,2,4-triazol-4-yl)cyclohexyl]benzenesulfonamide] | 22 nM |
| 3-[1,2,4]triazolo[1,5-a]pyrimidin-7-yl-N-[(1R,5S)-3,3-difluoro-5-(3-methyl-4H-1,2,4-triazol-4-yl)cyclohexyl]-5-(trifluoromethyl)benzenesulfonamide [Compound 9Ac] | 86 nM |
| COc1ccc(S(=O)(=O)N[C@H]2CCC[C@@H](n3cnnc3)C2)cc1OC [Compound 2Mx, 3,4-dimethoxy-N-[(1S,3R)-3-(4H-1,2,4-triazol-4-yl)cyclohexyl]benzenesulfonamide] | 600 nM |
| Cc1nncn1[C@@H]1CCC[C@H](NS(=O)(=O)c2ccc(-c3ccc(OCC(F)(F)F)nc3)cc2F)C1 [Compound 2Jh, 2-fluoro-N-[(1S,3R)-3-(3-methyl-4H-1,2,4-triazol-4-yl)cyclohexyl]-4-[6-(2,2,2-trifluoroethoxy)pyridin-3-yl]benzenesulfonamide] | 3.4 nM |
| O=S(=O)(N[C@H]1CCC[C@@H](n2cnnc2)C1)c1ccc(-c2ccc(OC(F)F)cc2)c(F)c1 [Compound 2Ec, 4′-(difluoromethoxy)-2-fluoro-N-[(1S,3R)-3-(4H-1,2,4-triazol-4-yl)cyclohexyl]biphenyl-4-sulfonamide] | 2.6 nM |
| CCCCOc1ccc(S(=O)(=O)N[C@H]2CCC[C@@H](n3cnnc3C3CC3)C2)cc1 [Compound 2Ow, 4-butoxy-N-[(1S,3R)-3-(3-cyclopropyl-4H-1,2,4-triazol-4-yl)cyclohexyl]benzenesulfonamide] | 4.1 nM |
| O=S(=O)(N[C@H]1CCC[C@@H](n2cnnc2)C1)c1cccc(OC(F)F)c1 [Compound 2Md, 3-(difluoromethoxy)-N-[(1S,3R)-3-(4H-1,2,4-triazol-4-yl)cyclohexyl]benzenesulfonamide] | 323 nM |
| CCc1cc(-c2cnc3ccnn3c2)cc(S(=O)(=O)N[C@H]2CCC[C@@H](n3cnnc3)C2)c1 [Compound 3Bax, 3-ethyl-5-pyrazolo[1,5-a]pyrimidin-6-yl-N-[(1S,3R)-3-(4H-1,2,4-triazol-4-yl)cyclohexyl]benzenesulfonamide] | 22 nM |
| O=S(=O)(N[C@H]1CCC[C@@H](n2cnnc2)C1)c1cc(-c2ccn3ncnc3c2)cc(C(F)(F)F)c1 [Compound 3Aal, 3-[1,2,4]triazolo[1,5-a]pyridin-7-yl-N-[(1S,3R)-3-(4H-1,2,4-triazol-4-yl)cyclohexyl]-5-(trifluoromethyl)benzenesulfonamide] | 42 nM |
| Cc1cc(C)cc(S(=O)(=O)N[C@H]2CCC[C@@H](n3cnnc3)C2)c1 [Compound 2Me, 3,5-dimethyl-N-[(1S,3R)-3-(4H-1,2,4-triazol-4-yl)cyclohexyl]benzenesulfonamide] | 194 nM |
| CC(C)Oc1ccc(-c2ccc(S(=O)(=O)N[C@@H]3C[C@H](n4cnnc4)CC(F)(F)C3)cc2F)cc1 [Compound 2Gd, N-[(1R,5S)-3,3-difluoro-5-(4H-1,2,4-triazol-4-yl)cyclohexyl]-2-fluoro-4′-isopropoxybiphenyl-4-sulfonamide] | 7.2 nM |
| CCc1cc(-c2cccnc2O)ccc1S(=O)(=O)N[C@H]1CCC[C@@H](n2cnnc2)C1 [Compound 2Aag, 2-ethyl-4-(2-hydroxypyridin-3-yl)-N-[(1S,3R)-3-(4H-1,2,4-triazol-4-yl)cyclohexyl]benzenesulfonamide] | 167 nM |
| CCc1cc(-c2ccc(O)cc2)ccc1S(=O)(=O)N[C@H]1CCC[C@@H](n2cnnc2)C1 [Compound 2Aad, 3-ethyl-4′-hydroxy-N-[(1S,3R)-3-(4H-1,2,4-triazol-4-yl)cyclohexyl]biphenyl-4-sulfonamide] | 36 nM |
| O=S(=O)(N[C@H]1CCC[C@@H](n2cnnc2)C1)c1cc(C(F)(F)F)cc(C(F)(F)F)c1 [2 Mb, N-[(1S,3R)-3-(4H-1,2,4-triazol-4-yl)cyclohexyl]-3,5-bis(trifluoromethyl)benzenesulfonamide] | 280 nM |
| CCc1cc(-c2ccc(OC(F)(F)F)c(F)c2)ccc1S(=O)(=O)N[C@H]1CCC[C@@H](n2cnnc2)C1 [Compound 2Aac, 3-ethyl-3′-fluoro-N-[(1S,3R)-3-(4H-1,2,4-triazol-4-yl)cyclohexyl]-4′-(trifluoromethoxy)biphenyl-4-sulfonamide] | 13 nM |
| COc1ccc(S(=O)(=O)N[C@H]2CCC[C@@H](n3cnnc3)C2)c(OC)c1 [Compound 2My, 2,4-dimethoxy-N-[(1S,3R)-3-(4H-1,2,4-triazol-4-yl)cyclohexyl]benzenesulfonamide] | 210 nM |
| CCc1cc(-c2ccc(OCC(F)(F)F)nc2)ccc1S(=O)(=O)N[C@@H]1C[C@H](n2cnnc2C)CC(F)(F)C1 [Compound 2Cbe, N-[(1R,5S)-3,3-difluoro-5-(3-methyl-4H-1,2,4-triazol-4-yl)cyclohexyl]-2-ethyl-4-[6-(2,2,2-trifluoroethoxy)pyridin-3-yl]benzenesulfonamide] | 0.2 nM |
| CCc1cc(-c2ccncc2)ccc1S(=O)(=O)N[C@H]1CCC[C@@H](n2cnnc2)C1 [Compound 2Ak, 2-ethyl-4-pyridin-4-yl-N-[(1S,3R)-3-(4H-1,2,4-triazol-4-yl)cyclohexyl]benzenesulfonamide] | 95 nM |
| CCc1cc([N+](=O)[O-])ccc1S(=O)(=O)N[C@H]1CCC[C@@H](n2cnnc2)C1 [Compound 2Ae, 2-ethyl-4-nitro-N-[(1S,3R)-3-(4H-1,2,4-triazol-4-yl)cyclohexyl]benzenesulfonamide] | 381 nM |
| Cc1nncn1[C@H]1C[C@@H](NS(=O)(=O)c2ccc(-c3noc(C4CC4)n3)cc2C2CC2)CC(F)(F)C1 [Compound 2Lj, 2-cyclopropyl-4-(5-cyclopropyl-1,2,4-oxadiazol-3-yl)-N-[(1R,5S)-3,3-difluoro-5-(3-methyl-4H-1,2,4-triazol-4-yl)cyclohexyl]benzenesulfonamide] | 1.3 nM |
| CCc1ccc(S(=O)(=O)N[C@H]2CCC[C@@H](n3cnnc3)C2)cc1-c1ccccc1 [Compound 2Mm, 6-ethyl-N-[(1S,3R)-3-(4H-1,2,4-triazol-4-yl)cyclohexyl]biphenyl-3-sulfonamide] | 26 nM |
